Assay results taken from the NIST ThermoML archive (doi:10.1016/j.jct.2005.10.006).

Assay: xn = mol fraction of the nth substance listed
Settings: Fluid (supercritical or subcritical phases), Spherical resonator

N#N [nitrogen] + C
Settings	speed of sound [m/s]
250 K, 30044 kPa, x1 = 0.1	707.81
250 K, 30196 kPa, x1 = 0.2	665.27
275 K, 105.1 kPa, x1 = 0.2	405.31
275 K, 249.6 kPa, x1 = 0.2	404.93
275 K, 498.5 kPa, x1 = 0.1	416.53
275 K, 498.5 kPa, x1 = 0.2	404.25
275 K, 998 kPa, x1 = 0.2	402.93
275 K, 998.1 kPa, x1 = 0.1	414.81
275 K, 1999 kPa, x1 = 0.1	411.66
275 K, 2001 kPa, x1 = 0.2	400.6
275 K, 3010 kPa, x1 = 0.2	398.72
275 K, 3012 kPa, x1 = 0.1	408.95
275 K, 4014 kPa, x1 = 0.2	397.39
275 K, 4024 kPa, x1 = 0.1	406.81
275 K, 5030 kPa, x1 = 0.2	396.69
275 K, 6045 kPa, x1 = 0.2	396.72
275 K, 6053 kPa, x1 = 0.1	404.7
275 K, 7052 kPa, x1 = 0.2	397.57
275 K, 8005 kPa, x1 = 0.1	406.18
275 K, 8072 kPa, x1 = 0.2	399.34
275 K, 9089 kPa, x1 = 0.2	402.1
275 K, 9957 kPa, x1 = 0.1	411.99
275 K, 10115 kPa, x1 = 0.2	405.96
275 K, 11147 kPa, x1 = 0.2	410.97
275 K, 12035 kPa, x1 = 0.1	423.61
275 K, 12036 kPa, x1 = 0.1	423.62
275 K, 12160 kPa, x1 = 0.2	416.99
275 K, 13171 kPa, x1 = 0.2	424.08
275 K, 14013 kPa, x1 = 0.2	430.77
275 K, 14111 kPa, x1 = 0.1	440.93
275 K, 15003 kPa, x1 = 0.2	439.49
275 K, 15988 kPa, x1 = 0.1	460.87
275 K, 15990 kPa, x1 = 0.2	449
275 K, 17009 kPa, x1 = 0.2	459.59
275 K, 17997 kPa, x1 = 0.2	470.47
275 K, 18033 kPa, x1 = 0.1	486.14
275 K, 19084 kPa, x1 = 0.2	483.04
275 K, 19680 kPa, x1 = 0.2	490.13
275 K, 20228 kPa, x1 = 0.1	515.84
275 K, 24821 kPa, x1 = 0.1	581.11
275 K, 29257 kPa, x1 = 0.1	642.82
275 K, 29972 kPa, x1 = 0.2	619.3
300 K, 199.5 kPa, x1 = 0.1	434.92
300 K, 248.5 kPa, x1 = 0.2	421.88
300 K, 480.1 kPa, x1 = 0.5422	386.4
300 K, 498 kPa, x1 = 0.1	434.24
300 K, 498.6 kPa, x1 = 0.2	421.47
300 K, 707.5 kPa, x1 = 0.5422	386.45
300 K, 996.8 kPa, x1 = 0.1	433.15
300 K, 1191 kPa, x1 = 0.5422	386.59
300 K, 1998 kPa, x1 = 0.1	431.25
300 K, 1999 kPa, x1 = 0.2	419.47
300 K, 2344 kPa, x1 = 0.5422	387.23
300 K, 3003 kPa, x1 = 0.1	429.75
300 K, 4015 kPa, x1 = 0.2	418.25
300 K, 4016 kPa, x1 = 0.1	428.73
300 K, 4632 kPa, x1 = 0.5422	389.87
300 K, 5019 kPa, x1 = 0.1	428.26
300 K, 6030 kPa, x1 = 0.1	428.38
300 K, 6037 kPa, x1 = 0.2	419.02
300 K, 6838 kPa, x1 = 0.5422	394.27
300 K, 7046 kPa, x1 = 0.1	429.17
300 K, 8068 kPa, x1 = 0.2	422.18
300 K, 8086 kPa, x1 = 0.1	430.75
300 K, 8994 kPa, x1 = 0.5422	400.43
300 K, 10104 kPa, x1 = 0.2	428.03
300 K, 10134 kPa, x1 = 0.1	436.25
300 K, 11262 kPa, x1 = 0.5422	408.61
300 K, 11983 kPa, x1 = 0.2	435.96
300 K, 12193 kPa, x1 = 0.1	445.26
300 K, 14023 kPa, x1 = 0.2	447.31
300 K, 14237 kPa, x1 = 0.1	457.66
300 K, 16022 kPa, x1 = 0.2	461.03
300 K, 16322 kPa, x1 = 0.1	473.66
